According to patent US6448201B1, “Benzoylcyclohexanediones and benzoylpyrazoles, their preparation, and their use as herbicides and plant growth regulators” (Aventis CropScience GmbH, priority 1999, dated 2002):

melting point: 72 to 78 °C
Structure (SMILES): CS(=O)(=O)c1ccc(C(=O)C2C(=O)CCCC2=O)c(Cl)c1OCc1cc(-c2ccccc2)no1 [1.70, 2-(2-Chloro-3-(3-phenylisoxazol-5-yl)methoxy-4-methylsulfonylbenzoyl)cyclohexane-1,3-dione]
